Consider 1 molecule from publication PMC12304826, “Redirecting the Peptide Cleavage Causes Protease Inactivation” (Angewandte Chemie (International Ed. in English), 2025).

For this experiment, the target named is T1, human cathepsin K (Homo sapiens, UniProt P43235).
T1 construct: purchased Enzo Life Sciences, Lörrach, Germany
T1 sequence (P43235 115-329): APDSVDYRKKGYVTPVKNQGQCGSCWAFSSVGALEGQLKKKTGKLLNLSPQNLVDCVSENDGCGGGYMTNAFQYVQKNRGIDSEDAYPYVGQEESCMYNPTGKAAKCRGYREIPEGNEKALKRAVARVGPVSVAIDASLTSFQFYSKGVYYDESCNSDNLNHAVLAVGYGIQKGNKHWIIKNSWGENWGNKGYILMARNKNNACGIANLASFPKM
The experiment in a line: Cathepsin K inhibition assay (Cbz-Leu-Arg-AMC). Particulars: 20 µM inhibitor, 60 min; read-out: Residual activity @ 20 µM (%) Cat K. Type of experiment: biochemical. As for the experimental part: 1. Enzyme Inhibition Assays and Kinetic Data of Inhibition of Cathepsins B, L, K and S General. Human cathepsins were assayed either fluorimetrically or spectrophotometrically as noted below. The 10 mM inhibitor solutions were prepared in DMSO. The final concentration of DMSO in all assays was 2%. Non-linear regressions were conducted with GraFit 5. Residual cathepsin activity at an inhibitor concentration of 20 µM was determined from duplicate measurements based on the product formation after 60 min. Concentration dependent measurements were performed in duplicate measurements with five different inhibitor concentrations when the residual cathepsin activity in the presence of 20 µM inhibitor was below 70% (cathepsin B) or below 50% (cathepsins cathepsins L, K, and S). Progress curves were monitored for 60 min. First-order rate constants, kobs, were determined by non-linear regression following the equation [P] = vi × (1 – exp(-kobs × t))/kobs + d, where [P] is the product concentration, vi is the initial product formation rate, kobs is the observed first-order rate constant, and d is the offset. Mean values of kobs were plotted versus corresponding inhibitor concentrations [I], and second-order rate constants of inactivation, kinac/Ki, were obtained by linear regression. The equation kobs/[I] = (kinac/Ki)/(1 + [S]/Km) was used, where [S] is the substrate concentration and Km is the Michaelis-Menten constant. Standard errors (SE) refer to the linear regression. […] Cathepsin K inhibition assay.[1] Human recombinant cathepsin K (Enzo Life Sciences, Lörrach, Germany) was assayed fluorimetrically on a Monaco Safas spectrofluorometer flx or a Fluostar OPTIMA plate reader (BMG Labtech, Ortenberg, Germany). The wavelength for excitation was 360 nm and for emission 440 nm. The reactions were followed at 25 °C. A human cathepsin K stock solution of 23 µg/mL in 50 mM sodium acetate pH 5.5, 50 mM NaCl, 0.5 mM EDTA, 5 mM DTT was diluted 1:100 with assay buffer (100 mM sodium citrate pH 5.0, 100 mM NaCl, 1 mM EDTA, 0.01% CHAPS) containing 5 mM DTT and incubated for 30 min at 37 °C. A 10 mM stock solution of the 7-amino-4-methyl-coumarin (AMC)-based fluorogenic substrate Cbz-Leu-Arg-AMC was prepared in DMSO. The final concentration of the substrate was 40 μM (= 13.3 Km). When using the spectrofluorometer, into a cuvette containing 960 μL assay buffer, inhibitor solution and DMSO in a total volume of 16 μL, and 4 μL of the substrate solution were added and mixed. The reaction was initiated by adding 20 µL of the cathepsin K solution. When using the plate reader, into a well containing 192 µL assay buffer, inhibitor solution and DMSO in a total volume of 3.2 µL and 0.8 µL of the substrate solution were added and mixed. The reaction was initiated by adding 4 µL of the cathepsin K solution.
Cathepsin S inhibition assay.[2] […]
DTT, 0.5% Triton X-100 and 30% glycerol was diluted 1:100 with a 50 mM sodium phosphate buffer pH 6.5, 50 mM NaCl, 2 mM EDTA, 0.01% Triton X-100 and 5 mM DTT and incubated for 60 min at 37 °C. A 10 mM stock solution of the fluorogenic substrate Cbz-Phe-Arg-AMC was prepared in DMSO.
The assay was performed with a final substrate concentration of 40 µM (= 0.74 Km). When using the spectrofluorometer, into a cuvette containing 920 μL assay buffer, inhibitor solution and DMSO in a total volume of 16 μL, and 4 μL of the substrate solution were added and mixed. The reaction was initiated by adding 60 μL of the cathepsin S solution. When using the plate reader, into a well containing 188 µL assay buffer, inhibitor solution and DMSO in a total volume of 3.2 µL and 0.8 µL of the substrate solution were added and mixed. The reaction was initiated by adding […] of the cathepsin S solution.

Each structure is given as a SMILES string.

Consider `CC(C)CC(C(=O)NC(Cc1ccccc1)C(=O)O)N(C)C(=O)Oc1ccc(Cl)cc1` (stereo not shown) [Compound 14], for which the remaining activity at 20 µM is 76%.
